Test results reported in patent US20230285402A1, “Compositions and Methods of Modulating Short-Chain Dehydrogenase Activity” (BOARD OF REGENTS OF THE UNIVERSITY OF TEXAS SYSTEM, priority 2013, published 2023).
Like-named read-outs stand apart in the source and are kept apart here.

Assays:
A549 cells [1] = assay: Cellular toxicity by CellTiter-Glo; format: cell-based; settings: concentrations of up to 10 μM; 24 hours
Description: FIGS. 38(A-C) show assays of cellular toxicity on A549 cells at 24 hours of 15-PGDH inhibitors as assayed by CellTiter-Glo measurement.

recombinant 15-PGDH [2] = molecular target: T1, recombinant 15-PGDH (Homo sapiens (Human), UniProt P15428); assay: Inhibition of enzymatic activity of recombinant 15-PGDH in vitro (NADH generation); format: biochemical
[3] = tested on: 15-PGDH-luciferase fusion reporter in V9m, LS174T and V503 cells; assay: 15-PGDH-luciferase fusion reporter induction in colon cancer cell lines; format: cell-based
A549 cells [4] = assay: PGE2 in medium of IL1-beta stimulated A549 cells; format: cell-based; settings: IL-1β 16 h, then compound 8 h
[5] = tested on: cell numbers in a cell culture assay; assay: Toxicity in cell culture assay (decrease of cell numbers); format: cell-based; settings: concentration needed to decrease cell numbers
Description: Time to inhibition refers to the time needed to inhibit the generation of NADH by 15-PGDH from the moment with drug is added into the reaction mix. Delta Tm refers to the shift in melting temperature of recombinant 15-PGDH in the presence of drug (with cofactor NADH also present). Concentration of Full Cell Line Reporter Induction refers to the concentration of drug that needs to be added to reporter cell line to achieve maximal induction of the 15-PGDH-luciferase gene fusion reporter cassette, as measured by luciferase assays. Hepatocyte stability refers to the half-life of compound in the presence of hepatocytes in culture. Toxicity refers to the concentration of compound needed to decrease cell numbers in a cell culture assay.

recombinant 15-PGDH [6] = molecular target: T1, recombinant 15-PGDH; assay: Melting temperature shift of recombinant 15-PGDH (SYPRO Orange); format: binding
[7] = tested on: PGE2 in colon, bone marrow, liver, lung; assay: PGE2 in mouse tissues after IP injection; format: in vivo
Description: Shown is measurement by Elisa of PGE2 (ng PGE2/mg of tissue protein) from 4 mouse tissues: lung, liver, colon and bone marrow. […] Tissues were harvested for PGE2 assay at either 2 hour (2 h) or 3 hour (3 h) time points following drug injection.

[8] = Stability with rat liver extracts; format: in vitro ADME
[9] = Stability with mouse liver extracts; format: in vitro ADME
mice [10] = assay: Immediate toxicity after IP injection into mice; format: in vivo; settings: over 24 hours; 50 mg/kg body weight IP
mice [11] = assay: Homing of CFSE labeled donor bone marrow cells in lethally irradiated mice; format: in vivo, mouse; settings: 10 mg/kg body weight
Description: Drugs are administered following radiation, following the transplant, and again at 8 hours after the transplant.

[12] = Chemical stability in aqueous solutions; format: physicochemical; settings: broad pH range
[13] = Stability with human liver extracts; format: in vitro ADME
[14] = tested on: 15-PGH-luciferase fusion protein reporter in the Vaco-9M (V9M) cell line; assay: 15-PGDH-luciferase fusion reporter induction in V9M cells; format: cell-based
Description: Some residual activity is seen for isomer B when added at 3.2 μM concentration. The small residual activity of isomer A may be due to possible 3% contamination with some residual isomer B.

T1 sequence (P15428 whole entry, the tested form may be a part): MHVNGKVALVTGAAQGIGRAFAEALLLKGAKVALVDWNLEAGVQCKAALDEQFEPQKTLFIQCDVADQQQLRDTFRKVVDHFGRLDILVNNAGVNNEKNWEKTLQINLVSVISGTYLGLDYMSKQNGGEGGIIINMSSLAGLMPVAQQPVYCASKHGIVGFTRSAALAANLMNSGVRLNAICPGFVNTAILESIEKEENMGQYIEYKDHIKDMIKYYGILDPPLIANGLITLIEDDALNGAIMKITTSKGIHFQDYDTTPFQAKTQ

## CCCC[S+]([O-])c1sc2nc(-c3nccs3)ccc2c1N (stereo not drawn) [SW206992]
A549 cells [1]
  effect on CellTitre-Glo levels: No effect
Recombinant 15-PGDH [2]; Table 2 summary, read-out: IC50
  IC50: 1.41 nM
Recombinant 15-PGDH [2]; read-out: Enzyme Inhibitor IC50 (nM) at 5 nM 15-PGDH, 5 nM recombinant human 15-PGDH
  IC50: 1.41 nM
Recombinant 15-PGDH [2]; time to inhibit NADH generation after drug is added, 10 nM
  Time to inhibition (10 nM): ~2 min
[3]; exposure for 24 hours
  concentration needed to induce maximal reporter induction: ≥ 1000 nM
[3]; maximal induction of reporter
  Concentration for Full Cell Line Reporter Induction: >1 µM
A549 cells [4]
  concentration at which maximal effect on PGE2 is attained: 2.5 µM
  highest PGE2 level in medium: 2100 pg/mL
[5]
  Toxicity: >7.5 µM
Recombinant 15-PGDH [6]
  Δ Tm (NADH): 19 °C
Recombinant 15-PGDH [6]; 10 μM 15-PGDH, 20 uM compound, NAD(+) 100 μM, control 49
  melting temperature: 59 degrees
Recombinant 15-PGDH [6]; 10 uM 15-PGDH, 20 uM compound, NADH 100 uM, control 55
  melting temperature: 68.5 degrees

## CCCC[S+]([O-])c1sc2nc(-c3cccs3)ccc2c1N (stereo not drawn) [SW206980]
A549 cells [1]
  effect on CellTitre-Glo levels: No effect
A549 cells [4]
  highest PGE2 level in medium: 2500 pg/mL
[5]
  Toxicity: >7.5 µM

## (+) SW209415
[7]; after IP injection
  time of peak PGE2: 3 h

## CCCC[S+]([O-])c1sc2nc(-c3nccs3)cc(-c3cnc(C)n3C)c2c1N (stereo not drawn) [formula (XIII)]
[8]
  stability when incubated with liver extracts: chemically stable
[9]
  stability when incubated with liver extracts: chemically stable
Mice [10]
  immediate toxicity: no immediate toxicity
Mice [11]
  homing of hematopoietic stem cells following bone marrow transplantation: increases homing
[12]
  chemical stability in aqueous solutions: chemically stable
Recombinant 15-PGDH [2]; enzyme concentration approximately 6 nM
  concentration that inhibits recombinant 15-PGDH: 3 nM
[7]; IP dose of 10 mg/kg body weight
  PGE2 levels in the colon, lung, liver and bone marrow: elevates PGE2 levels
[13]
  stability when incubated with liver extracts: chemically stable

## CCCC[S@](C)(O)c1sc2nc(-c3cccs3)cc(-c3ccccc3)c2c1N [SW033291 isomer B]
Recombinant 15-PGDH [2]; vs racemic SW033291
  IC50 lower than the parent racemic mixture: 40%
[14]
  concentration for full activity: 0.1 µM
Recombinant 15-PGDH [6]; Differential Scanning Fluorimetry, shifted from 50.5
  melting temperature: 68 °C
